# From ChEMBL document CHEMBL1201862, “PubChem BioAssay data set” (2004)
#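 The compound was tested at five concentrations on cells cultured in 96-well plates, with a 48-hour exposure period. GI50 marks 50% less growth.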 Active and inactive are the calls of the source. Cut-off read from the data, not from the text of the source: active = GI50 up to about 1.1 µM and inactive = higher.
# What was measured:
# Experiment in all cases: NCI tumour cell line growth inhibition, 48 h
# [1] = system: SK-MEL-5
# [2] = system: Hs-578T
# [3] = system: SK-OV-3
# [4] = system: UO-31
# [5] = system: MDA-MB-435
# [6] = system: BT-549
# [7] = system: SF-268
# [8] = system: DU-145
# [9] = system: COLO 205
# [10] = system: NCI-H522
# [11] = system: SF-295
# [12] = system: OVCAR-3
# [13] = system: RPMI-8226
# [14] = system: HOP-62
# [15] = system: CCRF-CEM
# [16] = system: EKVX
# [17] = system: OVCAR-5
# [18] = system: A549
# [19] = system: HCT-116
# [20] = system: T47D
# [21] = system: SNB-19
# [22] = system: SK-MEL-2
# [23] = system: MCF7
# [24] = system: IGROV-1
# [25] = system: NCI-H23
# [26] = system: Malme-3M
# [27] = system: ACHN
# [28] = system: HT-29
# [29] = system: 786-0
# [30] = system: CAKI-1
# [31] = system: NCI/ADR-RES
# [32] = system: OVCAR-4
# [33] = system: SW-620
# [34] = system: MOLT-4
# [35] = system: SK-MEL-28
# [36] = system: NCI-H226
# [37] = system: A498
# [38] = system: OVCAR-8
# [39] = system: LOX IMVI
# [40] = system: NCI-H460
# [41] = system: HL-60
# [42] = system: TK-10
# [43] = system: KM12
# [44] = system: M14
# [45] = system: U-251
# [46] = system: UACC-62
# [47] = system: SR
# [48] = system: RXF 393
# [49] = system: HCC 2998
# [50] = system: SNB-75
# [51] = system: PC-3
# [52] = system: UACC-257
# [53] = system: K562
# [54] = system: MDA-MB-231
# [55] = system: HCT-15
# [56] = system: SN12C
# [57] = system: SF-539
# [58] = system: HOP-92
smiles,measurement,setting,value
CC(C)(C)OC(=O)NC(Cc1ccccc1)C(=O)OCN1C(=O)C2C3C=CC(C2C1=O)C1C2C(=O)N(COC(=O)C(Cc4ccccc4)NC(=O)OC(C)(C)C)C(=O)C2C31 (stereo unspecified),GI50,[1],28 µM (inactive)
same,GI50,[2],18.7 µM (inactive)
same,GI50,[3],37.2 µM (inactive)
same,GI50,[4],19.5 µM (inactive)
same,GI50,[5],53.7 µM (inactive)
same,GI50,[6],18.6 µM (inactive)
same,GI50,[7],38.5 µM (inactive)
same,GI50,[8],41.6 µM (inactive)
same,GI50,[9],8.22 µM (inactive)
same,GI50,[10],23.7 µM (inactive)
same,GI50,[11],34.4 µM (inactive)
same,GI50,[12],63.1 µM (inactive)
same,GI50,[13],18.8 µM (inactive)
same,GI50,[14],30.4 µM (inactive)
same,GI50,[15],2.67 µM (inactive)
same,GI50,[16],23.6 µM (inactive)
same,GI50,[17],53.3 µM (inactive)
same,GI50,[18],8.28 µM (inactive)
same,GI50,[19],19.2 µM (inactive)
same,GI50,[20],36.3 µM (inactive)
same,GI50,[21],34.3 µM (inactive)
same,GI50,[22],29.8 µM (inactive)
same,GI50,[23],13.4 µM (inactive)
same,GI50,[24],30.4 µM (inactive)
same,GI50,[25],38.8 µM (inactive)
same,GI50,[26],39.4 µM (inactive)
same,GI50,[27],40.6 µM (inactive)
same,GI50,[28],12.9 µM (inactive)
same,GI50,[29],28.2 µM (inactive)
same,GI50,[30],27.5 µM (inactive)
same,GI50,[31],43 µM (inactive)
same,GI50,[32],37.1 µM (inactive)
same,GI50,[33],26.3 µM (inactive)
same,GI50,[34],10 µM (inactive)
same,GI50,[35],34.6 µM (inactive)
same,GI50,[36],29.4 µM (inactive)
same,GI50,[37],25.9 µM (inactive)
same,GI50,[38],30.1 µM (inactive)
same,GI50,[39],36.9 µM (inactive)
same,GI50,[40],3.82 µM (inactive)
same,GI50,[41],30.7 µM (inactive)
same,GI50,[42],31 µM (inactive)
same,GI50,[43],> 100 µM (inactive)
same,GI50,[44],38.9 µM (inactive)
same,GI50,[45],41.2 µM (inactive)
same,GI50,[46],44.8 µM (inactive)
same,GI50,[47],0.176 µM (active)
same,GI50,[48],22.7 µM (inactive)
same,GI50,[49],40 µM (inactive)
same,GI50,[50],19 µM (inactive)
same,GI50,[51],29.5 µM (inactive)
same,GI50,[52],> 56.4 µM (inactive)
same,GI50,[53],23.1 µM (inactive)
same,GI50,[54],29.7 µM (inactive)
same,GI50,[55],43.2 µM
same,GI50,[56],25.5 µM (inactive)
same,GI50,[57],42.4 µM (inactive)
same,GI50,[58],86.5 µM (inactive)
O=[N+]([O-])c1ccc(C2NC(=S)NC3c4cc([N+](=O)[O-])ccc4CCCC23)cc1 (stereo unspecified),GI50,[1],> 100 µM (inactive)
same,GI50,[2],> 100 µM (inactive)
same,GI50,[3],> 100 µM (inactive)
same,GI50,[4],63.8 µM (inactive)
same,GI50,[5],> 100 µM (inactive)
same,GI50,[6],38.8 µM (inactive)
same,GI50,[7],46.8 µM (inactive)
same,GI50,[8],33 µM (inactive)
same,GI50,[9],> 100 µM (inactive)
same,GI50,[10],69.7 µM (inactive)
same,GI50,[11],46.6 µM (inactive)
same,GI50,[12],40.7 µM (inactive)
same,GI50,[13],58.9 µM (inactive)
same,GI50,[14],57.4 µM (inactive)
same,GI50,[15],39.4 µM (inactive)
same,GI50,[16],77.3 µM (inactive)
same,GI50,[17],> 100 µM (inactive)
same,GI50,[18],78.3 µM (inactive)
same,GI50,[19],> 100 µM (inactive)
same,GI50,[20],35.6 µM (inactive)
same,GI50,[21],40.9 µM (inactive)
same,GI50,[22],> 100 µM (inactive)
same,GI50,[23],41.8 µM (inactive)
same,GI50,[24],36.9 µM (inactive)
same,GI50,[25],67.3 µM (inactive)
same,GI50,[26],> 100 µM (inactive)
same,GI50,[27],63.4 µM (inactive)
same,GI50,[28],> 100 µM (inactive)
same,GI50,[29],97.1 µM (inactive)
same,GI50,[30],> 100 µM (inactive)
same,GI50,[31],> 100 µM (inactive)
same,GI50,[32],56.4 µM (inactive)
same,GI50,[33],> 100 µM (inactive)
same,GI50,[34],> 100 µM (inactive)
same,GI50,[35],> 100 µM (inactive)
same,GI50,[36],53.5 µM (inactive)
same,GI50,[37],76.7 µM (inactive)
same,GI50,[38],52.2 µM (inactive)
same,GI50,[39],> 100 µM (inactive)
same,GI50,[40],> 100 µM (inactive)
same,GI50,[41],> 100 µM (inactive)
same,GI50,[42],> 100 µM (inactive)
same,GI50,[43],> 100 µM (inactive)
same,GI50,[44],> 100 µM (inactive)
same,GI50,[45],44.9 µM (inactive)
same,GI50,[46],31.2 µM (inactive)
same,GI50,[47],> 100 µM (inactive)
same,GI50,[48],18.2 µM (inactive)
same,GI50,[49],> 100 µM (inactive)
same,GI50,[50],16.6 µM (inactive)
same,GI50,[51],55.7 µM (inactive)
same,GI50,[52],> 100 µM (inactive)
same,GI50,[53],> 100 µM (inactive)
same,GI50,[54],> 100 µM (inactive)
same,GI50,[55],> 100 µM
same,GI50,[56],> 100 µM (inactive)
same,GI50,[57],39.1 µM (inactive)
same,GI50,[58],15.4 µM (inactive)
CCOC(=O)c1cc(C2CCN(Cc3ccccc3)C2=O)c(C(=O)C(=[N+]=[N-])C(C)=O)[nH]1 (stereo unspecified),GI50,[1],> 100 µM (inactive)
same,GI50,[2],> 100 µM (inactive)
same,GI50,[3],> 100 µM (inactive)
same,GI50,[4],> 100 µM (inactive)
same,GI50,[5],> 100 µM (inactive)
same,GI50,[6],> 100 µM (inactive)
same,GI50,[7],> 100 µM (inactive)
same,GI50,[8],> 100 µM (inactive)
same,GI50,[9],> 100 µM (inactive)
same,GI50,[11],> 100 µM (inactive)
same,GI50,[12],> 100 µM (inactive)
same,GI50,[13],> 100 µM (inactive)
same,GI50,[14],> 100 µM (inactive)
same,GI50,[15],> 100 µM (inactive)
same,GI50,[16],> 100 µM (inactive)
same,GI50,[17],> 100 µM (inactive)
same,GI50,[18],> 100 µM (inactive)
same,GI50,[19],> 100 µM (inactive)
same,GI50,[20],> 100 µM (inactive)
same,GI50,[21],> 100 µM (inactive)
same,GI50,[22],> 100 µM (inactive)
same,GI50,[23],> 100 µM (inactive)
same,GI50,[24],> 100 µM (inactive)
same,GI50,[25],> 100 µM (inactive)
same,GI50,[26],> 100 µM (inactive)
same,GI50,[28],> 100 µM (inactive)
same,GI50,[29],> 100 µM (inactive)
same,GI50,[30],> 100 µM (inactive)
same,GI50,[31],> 100 µM (inactive)
same,GI50,[32],> 100 µM (inactive)
same,GI50,[33],> 100 µM (inactive)
same,GI50,[34],> 100 µM (inactive)
same,GI50,[35],> 100 µM (inactive)
same,GI50,[36],> 100 µM (inactive)
same,GI50,[37],> 100 µM (inactive)
same,GI50,[38],> 100 µM (inactive)
same,GI50,[39],> 100 µM (inactive)
same,GI50,[40],> 100 µM (inactive)
same,GI50,[41],> 100 µM (inactive)
same,GI50,[43],> 100 µM (inactive)
same,GI50,[44],> 100 µM (inactive)
same,GI50,[45],> 100 µM (inactive)
same,GI50,[46],> 100 µM (inactive)
same,GI50,[47],> 100 µM (inactive)
same,GI50,[48],> 100 µM (inactive)
same,GI50,[49],> 100 µM (inactive)
same,GI50,[50],> 100 µM (inactive)
same,GI50,[51],> 100 µM (inactive)
same,GI50,[52],> 100 µM (inactive)
same,GI50,[53],> 100 µM (inactive)
same,GI50,[54],> 100 µM (inactive)
same,GI50,[55],> 100 µM
same,GI50,[56],> 100 µM (inactive)
same,GI50,[57],> 100 µM (inactive)
same,GI50,[58],> 100 µM (inactive)
